Data on three molecules can be found in patent US9695133B2, “Quinazolinone-based oncogenic-RAS-selective lethal compounds and their use” (THE TRUSTEES OF COLUMBIA UNIVERSITY IN THE CITY OF NEW YORK, priority 2012, dated 2017).

In assay [1] the test system is U-2 OS cells. As to the kind of experiment: U-2 OS cell viability (alamar blue) with TBHP or NAC. Type of assay: cell-based. For orientation: Alamar Blue is a resazurin reagent that responds to reducing activity.
The subject of assay [2] is BJ-derived cell lines. Put plainly: GSH depletion assay in BJ-derived cell lines. As to conditions: BJeLR cells, lethal RSL3 dose. It is filed as cell-based, human. How it is done: Bar graph: mean+s.d.; n=3. *, P<0.05.
2 million cells were seeded on 10 cm dishes. The next day, cells were treated with compounds to induce GSH depletion followed by harvesting to determine cell number. Two million live cells from each sample were transferred to new tubes, and centrifuged at 1,000 rpm at 4° C. for 5 minutes. The cell pellet was resuspended in 1 mL of PB buffer (10 mM sodium phosphate buffer, 1 mM EDTA, pH 7) and sonicated using 60 Joule energy. The lysate was centrifuged at 13,200 rpm at 4° C. for 10 minutes, and then the cleared lysate was used to determine the amount of GSH in the sample. The QuantiChrome glutathione assay kit (BioAssay Systems, cat # DIGT-250) was used and the product instructions were followed to determine GSH level.

The subject of assay [3] is GFP-ALOX5. As to the kind of experiment: GFP-ALOX5 translocation in BJ-derived cell lines. Type of assay: cell-based, human. On the procedure:
A cDNA of ALOX5 (GeneBank ID: BC130332.1) was cloned into a pBabe-puro vector to express GFP fused ALOX5 (N-terminal GFP fusion) in cells. The plasmid was transfected into PLAT-GP cells (Cell Biolabs Inc., cat # RV-103, San Diego, Calif.) along with a pVSV-G helper plasmid to produce retrovirus harboring the expression plasmid. 0.2 million target cells (BJeH, BJeHLT, BJeLR or HT-1080 cells) were seeded in 10 cm tissue culture dishes and incubated in the tissue culture incubator for 1 day. A frozen stock of retrovirus solution was thawed at 37° C. for 2 minutes, and polybrene (Sigma, cat. # H9268) was added at a final concentration of 8 μg/mL. Culture medium was replaced with virus/polybrene mix and the culture dish was incubated for two hours with rocking every 30 minutes. After 2 hours, 10 mL of growth media was added to culture dish, and the culture was incubated further for 2 days. Cell lines stably expressing GFP-ALOX5 protein were selected using 1.5 μg/mL puromycin and used for the GFP-ALOX5 translocation assay.
ALOX5 is one of the six human ALOX genes and plays a critical role in leukotriene synthesis. In the basal state, the ALOX5 protein remains in the nucleus; however, upon activation, it translocates to the nuclear membrane (Chen et al., 2001). […] Second, calcium chelators were not effective in suppressing erastin-induced cell death (Wolpaw et al., 2011).

For assay [4], the system named is BJeH, BJeHLT, BJeLR and DRD cells. It is filed as cell-based. As to conditions: 0.4 μM RSL3, BJeLR vs BJeHLT cells.
The test system of assay [5] is BJeLR cells. As to the kind of experiment: Lipid peroxide detection using BODIPY-C11 in BJ-derived cells. Type of assay: cell-based, human.
The test system of assay [6] is ALOX15B and ALOXE3. As to the kind of experiment: ALOX15B / ALOXE3 siRNA knockdown and lethal compound sensitivity in HT-1080 cells. It is filed as cell-based, human. How it is done: HT-1080 cells were transfected with siRNA pools targeting either ALOX15B or ALOXE3, and then, treated with the indicated RSL compounds in 2-fold dilution series. 24 hours after compound treatment, alamar blue was added to the culture at a final concentration of 10% in growth media to determine cell viability. The percent growth inhibition was calculated from the fluorescence intensity of each well in 384-well assay plates. Data points represent mean of duplicates.
Small interfering RNA (siRNA) pools targeting ALOX15B and ALOXE3 were obtained from Dharmacon Technologies (Lafayette, Colo.). On the day of reverse-transfection, a cocktail of 1 mL of Opti-MEM (Invitrogen Corp., Carlsbad, Calif.), 6 μL of Lipofectamine RNAiMAX (Invitrogen), and 5 μL of 10 μM siRNA were prepared and transferred to each well of a 6-well plate. The 6-well plate was put in the tissue culture incubator for 20 minutes to allow the formation of transfection mixture. While the complex was forming, HT-1080 cells were trypsinized and the cell number was determined using ViCell (Trypan Blue). 200,000 cells were prepared in 1 mL of growth media with 2× serum, and then, the cell suspension was transferred to each well containing 1 mL of the transfection mix. The 6-well plate was returned to the incubator and the culture grown for 2 days. […]

As for `CC(=O)N[C@@H](CS)C(=O)O` [NAC, N-acetyl-cysteine], the “rescue from erastin lethality by NAC supplementation” value in assay [1] is on record as “rescued cells from erastin lethality”.

Turning to `COC(=O)c1ccc([C@@H]2c3[nH]c4ccccc4c3C[C@@H](C(=O)OC)N2C(=O)CCl)cc1` [RSL3], in assay [2], the “cellular GSH level” value is reported as “remained unaffected”. In addition, the “GFP-ALOX5 translocation to the nuclear membrane” value in assay [3] is “caused GFP-ALOX5 translocation to the nuclear membrane”. For the same molecule, the selective lethality result in assay [4] is “exhibited selective lethality in BJeLR cells”. Besides, in assay [5], the “lipid peroxide generation (BODIPY-C11 fluorescence)” value is recorded as “generation of lipid peroxides”. Also, in assay [6], the “effect of ALOX15B knockdown on compound-induced cell death” value is “sensitized cells to RSL3-induced cell death” and the “effect of ALOXE3 knockdown on compound-induced cell death” value was “suppressed”.

Take `C[C@H](CCC(=O)O)C[C@H](C)C[C@H](C)C(=O)/C=C(\O)[C@H](C)C[C@H](C)C/C=C/[C@@H](C)[C@@H](O)[C@@H](C)[C@@H](O)C[C@@H]1CC[C@@](C)([C@H]2CC[C@@](C)([C@@H](C)O)O2)O1` [ionomycin]: in assay [3], the “GFP-ALOX5 translocation to the nuclear membrane” value was “induced localization of GFP-ALOX5 to the nuclear membrane in all BJ-derived cell lines”.
